Measurements published in patent US8609836B2, “4-aryl-2-anilino-pyrimidines” (Janssen Pharmaceutica NV, priority 2008, dated 2013).

Key:
H1299 = assay: Cellular proliferation assay (Alamar blue), H1299; type: cell-based; settings: Homo sapiens, NCI-H1299; 10% FCS; 72 hours with compound; Alamar blue 4 h
Description: (§1) […] functional properties of these compounds were tested in cellular proliferation assays on a panel of different cell lines in the presence of 10% FCS serum (37° C. and 5% (v/v) CO2). In a first step these cells were seeded and incubated for 24 hours in the absence of compound. In the second step the cells were incubated for 72 hours with the compounds to be tested for 72 hours. The viable cell number was finally assessed in a standard Alamar blue cell viability assay.
(§2) The viable cell number was assessed by incubation for either 4 h (HCT-116, H1299) 6 h (U87-MG) or 24 h (A2780, MDA-MB-231) with Alamar blue (Resazurin 9 μg/ml, K-Ferrocyanide 90 μM, K-Ferricyanide 90 μM) and the converted fluorescent product was quantified on a fluorescent plate reader (544 nm/590 nm). Effect of the compounds is calculated as of on control cells.

PLK4 (h) = PLK4 (h) (Homo sapiens, UniProt O00444); assay: PLK-4 human kinase inhibition, scintillation proximity assay (SPA); type: biochemical; settings: read-out: PLK4 pIC50 (converted)
PLK4 (h), sequence (O00444 whole entry): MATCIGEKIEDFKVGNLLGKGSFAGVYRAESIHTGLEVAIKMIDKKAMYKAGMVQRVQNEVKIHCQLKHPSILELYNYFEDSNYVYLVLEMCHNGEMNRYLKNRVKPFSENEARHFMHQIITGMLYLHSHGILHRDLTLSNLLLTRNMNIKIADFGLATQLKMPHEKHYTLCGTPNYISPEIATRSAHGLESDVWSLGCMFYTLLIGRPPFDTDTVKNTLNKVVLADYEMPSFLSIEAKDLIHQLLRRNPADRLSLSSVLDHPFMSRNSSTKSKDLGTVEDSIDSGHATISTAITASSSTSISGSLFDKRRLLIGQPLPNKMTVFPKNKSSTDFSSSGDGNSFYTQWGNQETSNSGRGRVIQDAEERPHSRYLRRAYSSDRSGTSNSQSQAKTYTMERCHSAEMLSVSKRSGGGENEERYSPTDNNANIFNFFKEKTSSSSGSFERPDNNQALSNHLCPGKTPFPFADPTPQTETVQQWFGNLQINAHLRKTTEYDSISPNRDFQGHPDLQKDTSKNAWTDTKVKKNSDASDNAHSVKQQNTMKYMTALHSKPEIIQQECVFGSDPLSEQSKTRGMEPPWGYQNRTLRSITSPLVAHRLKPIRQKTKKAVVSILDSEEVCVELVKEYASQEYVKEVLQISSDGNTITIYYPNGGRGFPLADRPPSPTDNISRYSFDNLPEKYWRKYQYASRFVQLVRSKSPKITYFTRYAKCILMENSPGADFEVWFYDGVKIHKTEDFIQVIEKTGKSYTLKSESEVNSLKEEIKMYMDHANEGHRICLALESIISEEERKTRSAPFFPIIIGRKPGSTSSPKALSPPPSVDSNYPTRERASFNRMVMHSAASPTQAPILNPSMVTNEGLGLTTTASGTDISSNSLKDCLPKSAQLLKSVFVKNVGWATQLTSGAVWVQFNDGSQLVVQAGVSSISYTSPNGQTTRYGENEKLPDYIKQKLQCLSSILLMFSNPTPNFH

CDK1/CyclinB (h) = CDK1/CyclinB (h) (Homo sapiens, UniProt P06493); assay: CDK1/CyclinB human kinase inhibition, Invitrogen's FRET assay (Z'lyte); type: biochemical; settings: read-out: CDK1 pIC50 (converted)
CDK1/CyclinB (h), sequence (P06493 whole entry): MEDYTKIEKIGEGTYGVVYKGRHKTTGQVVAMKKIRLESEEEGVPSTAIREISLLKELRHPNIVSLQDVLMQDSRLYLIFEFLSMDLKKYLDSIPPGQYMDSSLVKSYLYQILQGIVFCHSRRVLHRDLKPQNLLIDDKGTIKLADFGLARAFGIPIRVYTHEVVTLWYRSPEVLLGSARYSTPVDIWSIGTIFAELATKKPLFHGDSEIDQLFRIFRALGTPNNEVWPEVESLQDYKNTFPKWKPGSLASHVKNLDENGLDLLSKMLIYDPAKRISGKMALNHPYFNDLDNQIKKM
CDK1/CyclinB (h), sequence (P14635 whole entry partner): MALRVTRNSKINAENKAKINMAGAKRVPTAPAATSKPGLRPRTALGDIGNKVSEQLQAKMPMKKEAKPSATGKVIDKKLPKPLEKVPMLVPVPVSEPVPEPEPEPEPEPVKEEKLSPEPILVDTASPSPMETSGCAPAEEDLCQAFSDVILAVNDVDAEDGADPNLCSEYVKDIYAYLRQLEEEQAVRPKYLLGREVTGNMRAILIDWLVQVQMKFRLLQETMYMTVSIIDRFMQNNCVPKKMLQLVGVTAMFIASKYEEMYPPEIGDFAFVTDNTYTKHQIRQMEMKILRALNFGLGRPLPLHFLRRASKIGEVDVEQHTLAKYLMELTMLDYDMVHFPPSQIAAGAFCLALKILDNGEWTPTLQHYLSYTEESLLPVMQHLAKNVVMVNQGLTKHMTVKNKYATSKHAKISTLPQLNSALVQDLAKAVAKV
Procedure, shortened: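 Read-out is the 460 nm/538 nm emission ratio (390 nm excitation) after a 60 min protease development step. Before that, 10 μM ATP and 2 μM Z'lyte Ser/Thr peptide 12 react 60 min at room temperature with 0.2 μg/ml human CDK1/CyclinB in Hepes pH 7.5 containing MgCl2, EGTA and Brij-35.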

PLK2 (h) = PLK2 (h) (Homo sapiens, UniProt Q9NYY3); assay: PLK2 human kinase inhibition, SPA; type: biochemical; settings: read-out: PLK2 pIC50 (converted)
PLK2 (h), sequence (Q9NYY3 whole entry): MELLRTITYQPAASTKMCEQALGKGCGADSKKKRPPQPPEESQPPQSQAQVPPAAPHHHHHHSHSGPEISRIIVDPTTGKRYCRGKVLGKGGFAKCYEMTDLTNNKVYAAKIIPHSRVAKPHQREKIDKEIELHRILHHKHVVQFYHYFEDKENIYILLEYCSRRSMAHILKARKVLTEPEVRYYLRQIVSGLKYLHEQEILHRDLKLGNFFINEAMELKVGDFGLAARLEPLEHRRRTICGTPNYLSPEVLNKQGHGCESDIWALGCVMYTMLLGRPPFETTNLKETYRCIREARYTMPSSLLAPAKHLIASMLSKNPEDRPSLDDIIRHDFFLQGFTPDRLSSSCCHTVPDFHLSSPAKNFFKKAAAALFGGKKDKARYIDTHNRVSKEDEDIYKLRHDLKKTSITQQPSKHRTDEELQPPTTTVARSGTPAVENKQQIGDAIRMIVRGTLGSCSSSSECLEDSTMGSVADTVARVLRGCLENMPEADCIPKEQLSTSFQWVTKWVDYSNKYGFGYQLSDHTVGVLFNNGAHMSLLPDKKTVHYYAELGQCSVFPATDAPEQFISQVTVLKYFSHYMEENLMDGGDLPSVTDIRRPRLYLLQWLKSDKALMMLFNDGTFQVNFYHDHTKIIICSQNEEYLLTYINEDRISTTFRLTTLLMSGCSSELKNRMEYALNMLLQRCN
Procedure, shortened: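 33P incorporation into a biotinylated peptide (2 μM) was captured on streptavidin PVT beads and imaged on Leadseeker. Enzyme at 30 μg/ml, ATP 0.1 μM with 2 nM [γ-33P]ATP, Hepes pH 8.0 with MnCl2 and DTT. Incubation was 20 min at room temperature.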

MDA-MB-231 = assay: Cellular proliferation assay (Alamar blue), MDA-MB-231; type: cell-based; settings: Homo sapiens, 10% FCS, 72 hours with compound, Alamar blue 24 h, read-out: MDA/MB231 (cellular proliferation assay, Table 4) (converted)
Description: as §1, §2

GSK3β (h) = GSK3β (h) (Homo sapiens, UniProt P49841); assay: GSK-3β human kinase inhibition, SPA; type: biochemical; settings: read-out: GSK3b pIC50 (converted)
GSK3β (h), sequence (P49841 whole entry): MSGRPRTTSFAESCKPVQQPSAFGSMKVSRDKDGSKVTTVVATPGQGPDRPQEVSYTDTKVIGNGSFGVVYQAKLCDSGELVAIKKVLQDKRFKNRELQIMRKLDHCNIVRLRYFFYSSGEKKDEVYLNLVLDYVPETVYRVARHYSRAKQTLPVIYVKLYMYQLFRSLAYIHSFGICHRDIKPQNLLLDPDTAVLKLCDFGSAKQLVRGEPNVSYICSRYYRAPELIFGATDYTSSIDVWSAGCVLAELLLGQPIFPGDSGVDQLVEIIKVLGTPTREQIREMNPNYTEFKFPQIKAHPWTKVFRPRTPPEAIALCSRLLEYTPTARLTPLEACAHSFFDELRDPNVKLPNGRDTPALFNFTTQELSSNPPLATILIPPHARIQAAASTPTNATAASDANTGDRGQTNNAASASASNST
Procedure, shortened: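 Radiometric: 33P-labelled peptide captured on streptavidin SPA beads after EDTA stop and imaged on Leadseeker. Reaction ran 1 h at RT, 1 μM cold ATP with 2 nM [γ-33P]ATP, 1 μM biotin-peptide substrate, human GSK3β 1 μg/ml, pH 7.4 Tris buffer.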

HCT-116 = assay: Cellular proliferation assay (Alamar blue), HCT-116; type: cell-based; settings: Homo sapiens, 10% FCS, 72 hours with compound, Alamar blue 4 h
Procedure, shortened: (§3)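 Alamar blue conversion, quantified fluorimetrically (544 nm/590 nm), gave viable cell number relative to untreated controls; dye time 4 h for HCT-116, 6 h for U87-MG, 24 h for A2780 and MDA-MB-231. Compound exposure lasted 72 h, after 24 h pre-seeding, with 10% FCS, 37 °C, 5% CO2.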

PLK1 T210D (h) = PLK1 T210D (h) (Homo sapiens, UniProt P53350, T210D); assay: PLK1 human kinase inhibition, SPA; type: biochemical; settings: read-out: PLK1 pIC50 (converted)
PLK1 T210D (h), sequence (P53350 whole entry T210D): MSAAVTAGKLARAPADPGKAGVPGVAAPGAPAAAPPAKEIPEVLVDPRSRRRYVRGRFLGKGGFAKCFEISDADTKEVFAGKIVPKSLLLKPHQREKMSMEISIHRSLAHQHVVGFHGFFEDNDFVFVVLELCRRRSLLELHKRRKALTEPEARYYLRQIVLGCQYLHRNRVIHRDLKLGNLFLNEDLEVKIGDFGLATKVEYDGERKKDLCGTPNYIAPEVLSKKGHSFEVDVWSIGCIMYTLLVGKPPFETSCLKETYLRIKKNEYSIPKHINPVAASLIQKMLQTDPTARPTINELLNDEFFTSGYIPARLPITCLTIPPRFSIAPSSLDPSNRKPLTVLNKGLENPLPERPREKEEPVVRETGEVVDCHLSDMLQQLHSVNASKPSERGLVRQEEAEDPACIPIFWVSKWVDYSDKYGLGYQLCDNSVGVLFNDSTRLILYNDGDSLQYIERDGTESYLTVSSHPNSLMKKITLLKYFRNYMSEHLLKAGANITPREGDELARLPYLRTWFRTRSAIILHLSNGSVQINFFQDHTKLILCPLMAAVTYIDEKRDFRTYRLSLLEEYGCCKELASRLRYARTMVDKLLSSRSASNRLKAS
Procedure, shortened: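 Kinase incubated 40 min at room temperature with 0.1 μM ATP (2 nM [γ-33P]ATP tracer), 2 μM biotinylated peptide, pH 8.0 Hepes buffer with 2 mM MnCl2 and 1 mM DTT; enzyme at 0.125 ng/ml. Stopped with EDTA; 33P-peptide bound to streptavidin scintillant beads and imaged.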

AuroraB (h) = AuroraB (h) (Homo sapiens, UniProt Q96GD4); assay: Aurora-B human kinase inhibition, SPA; type: biochemical; settings: read-out: AuroraB pIC50 (converted)
AuroraB (h), sequence (Q96GD4 whole entry): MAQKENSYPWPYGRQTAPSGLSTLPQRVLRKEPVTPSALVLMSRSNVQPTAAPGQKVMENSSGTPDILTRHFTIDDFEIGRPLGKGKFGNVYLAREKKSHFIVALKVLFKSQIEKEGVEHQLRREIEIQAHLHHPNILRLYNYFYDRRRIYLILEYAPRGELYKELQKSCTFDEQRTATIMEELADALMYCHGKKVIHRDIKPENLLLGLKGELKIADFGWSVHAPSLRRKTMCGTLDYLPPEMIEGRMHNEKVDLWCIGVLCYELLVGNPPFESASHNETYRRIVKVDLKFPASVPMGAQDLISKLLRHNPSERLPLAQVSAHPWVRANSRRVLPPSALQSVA
Procedure, shortened: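 AuroraB (0.5 μg/ml) phosphorylates 3 μM biotin-peptide using 0.5 μM ATP spiked with 33P-ATP in Hepes pH 7.5 with 3 mM MgCl2 and MnCl2, for 60 min at room temperature. EDTA stop solution carries streptavidin scintillant beads, and the captured radiolabel is imaged.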

CDK4/CyclinD1 (h) = CDK4/CyclinD1 (h) (Homo sapiens, UniProt P11802); assay: CDK4/CyclinD1 human kinase inhibition, SPA with GST-pRb substrate; type: biochemical; settings: read-out: CDK4 pIC50 (converted)
CDK4/CyclinD1 (h), sequence (P11802 whole entry): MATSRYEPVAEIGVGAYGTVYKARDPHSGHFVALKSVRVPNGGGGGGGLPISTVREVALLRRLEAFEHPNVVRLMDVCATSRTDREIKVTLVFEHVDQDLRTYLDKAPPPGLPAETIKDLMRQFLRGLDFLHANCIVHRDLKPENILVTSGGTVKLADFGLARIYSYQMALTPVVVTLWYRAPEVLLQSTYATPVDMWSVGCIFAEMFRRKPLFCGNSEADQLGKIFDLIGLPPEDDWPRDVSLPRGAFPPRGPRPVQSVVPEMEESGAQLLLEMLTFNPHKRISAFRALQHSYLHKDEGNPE
CDK4/CyclinD1 (h), sequence (P24385 whole entry partner): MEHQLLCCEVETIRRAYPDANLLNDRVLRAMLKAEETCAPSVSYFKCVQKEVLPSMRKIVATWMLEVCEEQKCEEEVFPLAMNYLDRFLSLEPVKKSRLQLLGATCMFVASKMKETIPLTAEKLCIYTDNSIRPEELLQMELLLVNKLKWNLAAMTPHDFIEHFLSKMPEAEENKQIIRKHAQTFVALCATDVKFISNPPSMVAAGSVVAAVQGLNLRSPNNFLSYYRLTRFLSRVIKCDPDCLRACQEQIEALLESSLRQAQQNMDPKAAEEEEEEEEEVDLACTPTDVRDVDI
Description: The in vitro inhibition of a panel of kinases was assessed using either the scintillation proximity assay (SPA) as described by Cook, N. D. et al., Advances in Experimental Medicine and Biology (1991), 36; p. 525-528.
In the SPA technology the activity of the kinase of interest is measured using an appropriate biotinylated substrate that is incubated with the aforementioned kinase protein in the presence of (^33P) radiolabeled ATP. (^33P) Phosphorylation of the substrate is subsequently measured through binding of the phosphorylated substrate to streptavidine coated beads that are based on the scintillant poly(vinyl toluene) (PVT-Beads). The scintillation intensity is detected by imaging on Leadseeker.
All kinases are pre-diluted to a 10× working concentration prior to addition into the assay. The composition of the dilution buffer for each kinase is detailed below.
In a final reaction volume of 30 μl, CDK4/CyclinD1 (h) (2.5 μg/ml) is incubated with 50 mM Hepes pH 7.5, 8 mM NaF, 20 mM MgCl2, 1 mM DTT, 40 μg/ml of substrate GST-pRb, 2 nM [γ-^33P-ATP] (6.0 μCi/ml). After incubation of 60 minutes at room temperature, the reaction is stopped by addition of 40 μL of stop solution containing 8.7 mM EDTA, 0.17% Triton X-100, 25 mg/ml Glutathion SPA Beads (GE-healthcare). The plate is centrifuged and read for Scintillation topcount analyzer.

PLK3 (h) = PLK3 (h) (Homo sapiens, UniProt Q9H4B4); assay: PLK3 human kinase inhibition, SPA; type: biochemical; settings: read-out: PLK3 pIC50 (converted)
PLK3 (h), sequence (Q9H4B4 whole entry): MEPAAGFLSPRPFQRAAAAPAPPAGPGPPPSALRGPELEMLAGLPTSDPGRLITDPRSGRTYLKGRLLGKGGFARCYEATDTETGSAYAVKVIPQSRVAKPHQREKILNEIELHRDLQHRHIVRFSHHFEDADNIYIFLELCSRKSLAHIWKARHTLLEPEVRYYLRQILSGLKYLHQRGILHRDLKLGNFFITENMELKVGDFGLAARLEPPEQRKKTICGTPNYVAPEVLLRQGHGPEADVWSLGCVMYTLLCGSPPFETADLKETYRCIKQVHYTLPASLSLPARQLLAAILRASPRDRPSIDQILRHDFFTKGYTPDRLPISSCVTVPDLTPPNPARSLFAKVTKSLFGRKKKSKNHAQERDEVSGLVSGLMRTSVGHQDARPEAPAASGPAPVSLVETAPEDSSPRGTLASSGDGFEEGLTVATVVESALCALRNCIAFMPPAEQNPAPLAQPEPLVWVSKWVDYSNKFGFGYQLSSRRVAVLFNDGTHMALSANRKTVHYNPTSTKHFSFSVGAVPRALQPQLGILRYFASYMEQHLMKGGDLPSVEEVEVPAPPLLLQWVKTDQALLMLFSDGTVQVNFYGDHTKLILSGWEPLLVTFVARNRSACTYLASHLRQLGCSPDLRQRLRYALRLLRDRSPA
Procedure, shortened: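 Radiometric scintillation proximity format at pH 8.0 (Hepes, MnCl2, DTT). The 2 μM biotin-peptide substrate is phosphorylated by PLK3 (h) (30 μg/ml) using 0.1 μM ATP traced with 33P, for 20 min at room temperature. EDTA stop; phosphopeptide captured on streptavidin beads and imaged.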

U87-MG = assay: Cellular proliferation assay (Alamar blue), U87-MG; type: cell-based; settings: Homo sapiens, U-87 MG; 10% FCS; 72 hours with compound; Alamar blue 6 h; read-out: U87-MG (cellular proliferation assay, Table 4) (converted)
Procedure, shortened: as §3

A2780 = assay: Cellular proliferation assay (Alamar blue), A2780; type: cell-based; settings: Homo sapiens, 10% FCS, 72 hours with compound, Alamar blue 24 h, read-out: A2780 (cellular proliferation assay, Table 4) (converted)
Procedure, shortened: as §3

| Compound | IC50 (H1299) [µM] | IC50 (PLK4 (h)) [µM] | IC50 (CDK1/CyclinB (h)) [µM] | IC50 (PLK2 (h)) [µM] | IC50 (MDA-MB-231) [µM] | IC50 (GSK3β (h)) [µM] | IC50 (HCT-116) [µM] | IC50 (PLK1 T210D (h)) [µM] | IC50 (AuroraB (h)) [µM] | IC50 (CDK4/CyclinD1 (h)) [µM] | IC50 (PLK3 (h)) [µM] | IC50 (U87-MG) [µM] | IC50 (A2780) [µM] |
| --- | --- | --- | --- | --- | --- | --- | --- | --- | --- | --- | --- | --- | --- |
| COc1ccc2cc1CNCCCNC(=O)C1CCN(CC1)Cc1cc(ccc1N1CCOCC1)Nc1nccc-2n1 [Compound 3] | > 10 | 0.0871 | > 10 | > 10 | > 10 | > 10 | > 10 | > 10 | 1.55 | > 10 | > 10 |  |  |
| COc1ccc2cc1CNCCCNC(=O)CN1CCN(CC1)Cc1cc(ccc1N1CCOCC1)Nc1nccc-2n1 [Compound 13] | > 10 | 0.49 | > 10 | > 10 | > 10 | > 10 | > 10 | > 10 | 4.17 | > 10 | > 10 |  |  |
| CN1CCN(Cc2cc3cc(c2)Nc2nccc(n2)-c2cccc(c2)CNC(=O)[C@@H]2CCCN2C3)CC1 [Compound 28] | 2.24 |  | 0.603 | > 10 | 1.62 | 0.112 | 0.363 | > 10 | > 10 | 1.66 | > 10 | 0.158 | 0.55 |
| O=C1NCc2cccc(c2)-c2ccnc(n2)Nc2cccc(c2)CN2CCC[C@@H]12 [Compound 53] | > 10 | > 10 |  | > 10 | > 10 | 0.126 | 8.71 | > 10 | > 10 | > 10 | > 10 | 6.61 | > 10 |
| O=C1NCCNCc2ccc(cc2)-c2ccnc(n2)Nc2ccc(N3CCOCC3)c(c2)CN2CCC1CC2 [Compound 71] | > 10 | 1.7 | 9.77 | > 10 | 6.76 | > 10 | 5.13 | > 10 | > 10 | > 10 | > 10 |  |  |
| O=C1CN2CCN(CC2)Cc2cc(ccc2N2CCOCC2)Nc2nccc(n2)-c2ccc(cc2)CNCCN1 [Compound 125] | > 10 | 0.692 | > 10 | > 10 | > 10 | > 10 | > 10 | > 10 | > 10 | > 10 | > 10 |  |  |
| COc1cc2cc(c1)Nc1nccc(n1)-c1ccc(cc1)CN(C)CCCNC(=O)CN1CCN(CC1)C2 [Compound 133] | > 10 | 1.51 | > 10 | > 3.02 | > 10 |  | 1.95 | > 10 | > 10 | > 10 | > 10 | 8.91 | > 10 |
